Reference: patent publication US8933113B2 (Merck Sharp & Dohme Corp., priority 2011, dated 2015)

target: T1, full-length human Mineralocorticoid Receptor (MR) (Homo sapiens, UniProt P08235); assay: human MR NH Pro assay (PathHunter Protein:Protein interaction assay), MR antagonist activity; type: cell-based; conditions: PathHunter CHO-K1 cells overexpressing human MR; aldosterone about 0.3 nM; 6 hours at 37° C.; luminescence; read-out: Primary Assay IP rating (IP = inflection point for a given dose-response titration curve)
T1 construct: host or cells: PathHunter CHO-K1 cells
T1 sequence (P08235 1-984): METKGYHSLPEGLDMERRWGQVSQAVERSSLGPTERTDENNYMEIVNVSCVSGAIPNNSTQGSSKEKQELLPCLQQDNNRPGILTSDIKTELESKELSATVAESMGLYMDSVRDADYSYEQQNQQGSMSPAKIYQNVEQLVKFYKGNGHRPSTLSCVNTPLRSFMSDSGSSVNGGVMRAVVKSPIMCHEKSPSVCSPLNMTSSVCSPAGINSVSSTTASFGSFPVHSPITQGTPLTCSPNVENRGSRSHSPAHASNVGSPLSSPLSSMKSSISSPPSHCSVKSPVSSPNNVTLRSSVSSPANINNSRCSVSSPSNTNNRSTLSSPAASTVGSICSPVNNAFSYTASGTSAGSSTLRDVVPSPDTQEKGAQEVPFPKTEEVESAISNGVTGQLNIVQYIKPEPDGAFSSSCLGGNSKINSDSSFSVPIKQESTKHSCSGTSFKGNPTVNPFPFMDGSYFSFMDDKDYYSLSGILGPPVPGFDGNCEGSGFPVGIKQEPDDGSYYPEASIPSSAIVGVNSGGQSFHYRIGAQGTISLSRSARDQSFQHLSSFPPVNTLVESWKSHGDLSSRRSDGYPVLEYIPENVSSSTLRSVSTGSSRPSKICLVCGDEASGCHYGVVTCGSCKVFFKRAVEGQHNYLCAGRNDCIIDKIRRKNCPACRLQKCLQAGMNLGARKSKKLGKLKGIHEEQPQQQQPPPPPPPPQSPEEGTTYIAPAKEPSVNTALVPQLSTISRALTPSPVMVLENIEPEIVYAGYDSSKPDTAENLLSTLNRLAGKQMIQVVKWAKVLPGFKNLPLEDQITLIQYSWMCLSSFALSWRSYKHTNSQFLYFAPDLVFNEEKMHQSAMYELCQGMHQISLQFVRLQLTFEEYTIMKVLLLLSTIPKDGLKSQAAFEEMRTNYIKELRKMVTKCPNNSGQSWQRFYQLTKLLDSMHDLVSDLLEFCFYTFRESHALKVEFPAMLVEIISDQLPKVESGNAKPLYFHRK
Summary of the method: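 PathHunter enzyme-complementation assay in cells of full-length human MR recruitment of a coactivator peptide, run in antagonist mode against aldosterone at about 0.3 to 1.0 nM final. Compounds are in a 10-point, 1:3 series from a 4.4 mM top. Incubation is 6 h at 37° C, then detection reagent for 1 h at RT, with a luminescence read-out.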

| IC50 | SMILES |
| --- | --- |
| < 100 nM | CCC(CC#N)(c1ccc(C(F)(F)F)cc1)n1ccc2c(NS(C)(=O)=O)cccc21 (centres unmarked) [Compound 126, N-(1-(1-cyano-2-(4-(trifluoromethyl)phenyl)butan-2-yl)-1H-indol-4-yl)methanesulfonamide] |
| < 100 nM | CCC(CCC(C)=O)(c1ccc(Cl)cc1)n1ncc2c(NS(C)(=O)=O)cccc21 (centres unmarked) [Compound 172, N-(1-(3-(4-chlorophenyl)-6-oxoheptan-3-yl)-1H-indazol-4-yl)methanesulfonamide] |
| < 100 nM | CCC(CCC(=O)OC)(c1ccc(Cl)cc1)n1ncc2c(NS(C)(=O)=O)cccc21 (centres unmarked) [Compound 168, methyl 4-(4-chlorophenyl)-4-(4-(methylsulfonamido)-1H-indazol-1-yl)hexanoate] |
| < 100 nM | CCC(c1ccc(C(F)(F)F)cc1)(C(C)O)n1ncc2c(NS(C)(=O)=O)cccc21 (single isomer, unassigned) [Compound 116, N-(1-(2-hydroxy-3-(4-(trifluoromethyl)phenyl)pentan-3-yl)-1H-indazol-4-yl)methanesulfonamide] |
| < 100 nM | CCC(CCC(F)(F)F)(c1ccc(Cl)cc1)n1ccc2c(NS(C)(=O)=O)cccc21 (single isomer, unassigned) [Compound 180, N-(1-(3-(4-chlorophenyl)-6,6,6-trifluorohexan-3-yl)-1H-indol-4-yl)methane sulfonamide] |
| < 100 nM | CCC(C(=O)OC)(c1ccc(Cl)cc1)n1ccc2c(CCS(C)(=O)=O)cccc21 (centres unmarked) [Compound 153, Methyl 2-(4-chlorophenyl)-2-(4-(2-(methylsulfonyl)ethyl)-1H-indol-1-yl)butanoate] |
| 100 to 500 nM | CCC(CC#N)(c1ccc(Cl)cc1)n1ccc2c(NS(C)(=O)=O)cc(F)cc21 (single isomer, unassigned) [Compound 124, N-(1-(2-(4-chlorophenyl)-1-cyanobutan-2-yl)-6-fluoro-1H-indol-4-yl)methanesulfonamide] |
| 500 to 5000 nM | CCC(C(=O)NCCOC)(c1ccc(Cl)cc1)n1ccc2c(NS(C)(=O)=O)cccc21 (centres unmarked) [Compound 42, 2-(4-chlorophenyl)-N-(2-methoxyethyl)-2-{4-[(methylsulfonyl)amino]-1H-indol-1-yl}butanamide] |
| < 100 nM | CCC(c1ccc(Cl)cc1)(c1noc(-c2ccc(F)cc2)n1)n1ccc2c(NS(C)(=O)=O)cccc21 (centres unmarked) [Compound 59, N-(1-{1-(4-chlorophenyl)-1-[5-(4-fluorophenyl)-1,2,4-oxadiazol-3-yl]propyl}-1H-indol-4-yl)methanesulfonamide] |
| < 100 nM | CCC(c1ccc(C(F)(F)F)cc1)(C(C)O)n1ncc2c(NS(C)(=O)=O)cccc21 (single isomer, unassigned) [Compound 117, N-(1-(2-hydroxy-3-(4-(trifluoromethyl)phenyl)pentan-3-yl)-1H-indazol-4-yl)methanesulfonamide] |
| < 100 nM | CCC(c1ccc(Cl)cc1)(C(C)O)n1ncc2c(NS(C)(=O)=O)cccc21 (single isomer, unassigned) [Compound 106] |
| 100 to 500 nM | C=CCC(C(=O)OC)(c1ccc(Cl)cc1)n1ccc2c(NS(C)(=O)=O)cccc21 (centres unmarked) [Compound 33, Methyl 2-(4-chlorophenyl)-2-{4-[(methylsulfonyl)amino]-1H-indol-1-yl}pent-4-enoate] |
| < 100 nM | COC(=O)C(CCF)(c1ccc(Cl)cc1)n1ccc2c(NS(C)(=O)=O)cccc21 (centres unmarked) [Compound 156, methyl 2-(4-chlorophenyl)-4-fluoro-2-(4-(methylsulfonamido)-1H-indol-1-yl)butanoate] |
| < 100 nM | CCn1ncc(C(CC)(c2ccc(Cl)cc2)n2ccc3c(NS(C)(=O)=O)cccc32)n1 (centres unmarked) [Compound 152, N-(1-(1-(4-chlorophenyl)-1-(2-ethyl-2H-1,2,3-triazol-4-yl)propyl)-1H-indol-4-yl)methanesulfonamide] |
| < 100 nM | CCC(CCC#N)(c1ccc(Cl)cc1)n1ccc2c(NS(C)(=O)=O)cc(F)cc21 (single isomer, unassigned) [Compound 143, N-(1-(3-(4-chlorophenyl)-1-cyanopentan-3-yl)-6-fluoro-1H-indol-4-yl)methanesulfonamide] |
| < 100 nM | CCC(CC#N)(c1ccc(Cl)cc1)n1ccc2c(NS(C)(=O)=O)cccc21 (single isomer, unassigned) [Compound 121, N-(1-(2-(4-chlorophenyl)-1-cyanobutan-2-yl)-1H-indol-4-yl)methanesulfonamide] |

| IC50 | SMILES |
| --- | --- |
| < 100 nM | CCC(COC)(c1ccc(Cl)cc1)n1ncc2c(NS(C)(=O)=O)cccc21 (single isomer, unassigned) [Compound 97, N-(1-(2-(4-chlorophenyl)-1-methoxybutan-2-yl)-1H-indazol-4-yl)methanesulfonamide] |
| 100 to 500 nM | CCC(c1ccc(Cl)cc1)(n1ncc2c(NS(=O)(=O)N(C)C)cccc21)C(C)(C)O (centres unmarked) [Compound 95, 3-(1-(3-(4-chlorophenyl)-2-hydroxy-2-methylpentan-3-yl)-1H-indazol-4-yl)-1,1-dimethyl-sulfonylurea] |
| < 100 nM | CCC(c1ccc(Cl)cc1)(C(C)N)n1ccc2c(NS(C)(=O)=O)cccc21 (single isomer, unassigned) [Compound 176, N-(1-(2-amino-3-(4-chlorophenyl)pentan-3-yl)-1H-indol-4-yl)methanesulfonamide] |
| 100 to 500 nM | CCC(/C=C/C(=O)OC)(c1ccc(Cl)cc1)n1ncc2c(NS(C)(=O)=O)cccc21 (centres unmarked) [Compound 171, (E)-methyl 4-(4-chlorophenyl)-4-(4-(methylsulfonamido)-1H-indazol-1-yl)hex-2-enoate] |
| 100 to 500 nM | CCC(/C=C/C#N)(c1ccc(Cl)cc1)n1ncc2c(N)cc(F)cc21 (centres unmarked) [Compound 134, (E)-4-(4-amino-6-fluoro-1H-indazol-1-yl)-4-(4-chlorophenyl)hex-2-enenitrile] |
| 500 to 5000 nM | CCC(C(=O)NCCC#N)(c1ccc(Cl)cc1)n1ccc2c(NS(C)(=O)=O)cccc21 (centres unmarked) [Compound 48, 2-(4-chlorophenyl)-N-(2-cyanoethyl)-2-{4-[(methylsulfonyl)amino]-1H-indol-1-yl}butanamide] |
| 500 to 5000 nM | CC[C@](C(=O)NCc1ccccc1)(c1ccc(Cl)cc1)n1ccc2c(NS(C)(=O)=O)cccc21 [Compound 43, (R)—N-benzyl-2-(4-chlorophenyl)-2-{4-[(methylsulfonyl)amino]-1H-indol-1-yl}butanamide] |
| 100 to 500 nM | COC(=O)C(c1ccc(Cl)cc1Cl)n1ccc2c([N+](=O)[O-])cccc21 (centres unmarked) [Compound 3, methyl (2,4-dichlorophenyl)(4-nitro-1H-indol-1-yl)acetate] |
| < 100 nM | CCC(c1ccc(Cl)cc1)(c1nc(C)no1)n1ccc2c(NS(C)(=O)=O)cccc21 (single isomer, unassigned) [Compound 150, N-(1-(1-(4-chlorophenyl)-1-(3-methyl-1,2,4-oxadiazol-5-yl)propyl)-1H-indol-4-yl)methanesulfonamide] |
| 100 to 500 nM | CCC(C(=O)NCCF)(c1ccc(Cl)cc1)n1ccc2c(NS(C)(=O)=O)cccc21 (centres unmarked) [Compound 49, 2-(4-chlorophenyl)-N-(2-fluoroethyl)-2-{4-[(methylsulfonyl)amino]-1H-indol-1-yl}butanamide] |
| 100 to 500 nM | CC[C@](C(N)=O)(c1ccc(Cl)cc1)n1ccc2c(NS(C)(=O)=O)cccc21 [Compound 40, (R)-2-(4-chlorophenyl)-2-{4-[(methylsulfonyl)amino]-1H-indol-1-yl}butanamide] |
| 100 to 500 nM | CS(=O)(=O)Nc1cccc2c1ccn2C(CC#N)(C(=O)NCc1ccccc1)c1ccc(Cl)cc1 (centres unmarked) [Compound 54, N-benzyl-2-(4-chlorophenyl)-3-cyano-2-{4-[(methylsulfonyl)amino]-1H-indol-1-yl}propanamide] |
| 100 to 500 nM | CCC(C(=O)OC(C)(C)C)(c1ccc(Cl)cc1)n1ccc2c(NS(C)(=O)=O)cccc21 (centres unmarked) [Compound 26, tert-Butyl 2-(4-chlorophenyl)-2-{4-[(methylsulfonyl)amino]-1H-indol-1-yl}butanoate] |
| 500 to 5000 nM | COC(=O)C(c1ccc(F)cc1Cl)n1ccc2cc(C#N)ccc21 (centres unmarked) [Compound 11, methyl (2-chloro-4-fluorophenyl)(5-cyano-1H-indol-1-yl)acetate] |
| 100 to 500 nM | CCC(CO)(c1ccc(C(F)(F)F)cc1)n1ncc2c(NS(C)(=O)=O)cccc21 (centres unmarked) [Compound 89, N-(1-(1-hydroxy-2-(4-(trifluoromethyl)phenyl)butan-2-yl)-1H-indazol-4-yl)methanesulfonamide] |

| SMILES | IC50 |
| --- | --- |
| CC[C@@](c1ccc(Cl)cc1)(c1noc(C)n1)n1ccc2c(NS(C)(=O)=O)cccc21 [Compound 57] | < 100 nM |
